Results reported in ChEMBL document CHEMBL1141465, “The design, synthesis and structure-activity relationships of 1-aryl-4-aminoalkylisoquinolines: a novel series of CRF-1 receptor antagonists” (Bioorg Med Chem Lett, 2008).
In brackets after ≈: the same amount, converted by molar mass.

Assays:
[1] = biological target: T1, Corticotropin-releasing factor receptor 1 (Homo sapiens, UniProt P34998); assay: Displacement of [125I]sauvagine from CRF1 receptor expressed in human IMR32 cells; type: cell-based, IMR-32
T1 sequence (P34998 whole entry): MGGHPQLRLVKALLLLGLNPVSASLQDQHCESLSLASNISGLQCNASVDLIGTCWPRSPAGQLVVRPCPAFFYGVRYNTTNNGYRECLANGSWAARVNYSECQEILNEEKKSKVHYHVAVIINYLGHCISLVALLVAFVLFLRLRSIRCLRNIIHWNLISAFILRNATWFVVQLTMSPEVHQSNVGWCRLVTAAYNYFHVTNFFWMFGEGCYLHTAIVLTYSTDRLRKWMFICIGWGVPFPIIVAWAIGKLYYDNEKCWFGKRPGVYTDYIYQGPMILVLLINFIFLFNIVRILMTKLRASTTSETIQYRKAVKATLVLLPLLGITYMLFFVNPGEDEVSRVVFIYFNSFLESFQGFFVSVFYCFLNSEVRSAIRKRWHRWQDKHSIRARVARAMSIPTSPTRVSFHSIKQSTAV

[2] = Solubility at pH 5.4; type: physicochemical; settings: buffer
[3] = Half life in rat liver microsomes; type: ADME, Microsome
[4] = Partition coefficient, log P of the compound; type: physicochemical; settings: octanol/water
[5] = Oral bioavailability of rat at 20 mg/kg; type: ADME, organism-based; settings: in vivo
[6] = Tmax in po dosed rat; type: ADME, organism-based; settings: in vivo
Rattus norvegicus = assay: Volume of distribution in po dosed rat; type: ADME, organism-based; settings: in vivo
[7] = Clearance in po dosed rat; type: ADME, organism-based; settings: in vivo
[8] = Half life in po dosed rat; type: ADME, organism-based; settings: in vivo
[9] = Cmax in po dosed rat; type: ADME, organism-based; parameters: route oral; settings: in vivo

CCCN(CCC)c1c(C)nc(-c2c(C)cc(OC)cc2C)c2ccccc12
Ki [1]: 26 nM

CCCN(CCC)c1c(C)nc(-c2ccc(Cl)cc2C)c2ccccc12
Ki [1]: 21 nM

COc1cc(C)cc(C)c1-c1nc(C)c(N(CC2CC2)CC2CC2)c2ccccc12
Ki [1]: 7 nM
solubility [2]: < 0.5 µg/mL

CCCN(CCn1ccnc1)c1c(C)nc(-c2c(C)cc(C)cc2OC)c2ccccc12
Ki [1]: 1060 nM
solubility [2]: 107 µg/mL (≈ 250 µM)

CCCN(CCC)c1c(C)nc(-c2c(C)cc(C)cc2OCCN2CCCC(O)C2)c2ccccc12 (stereo unspecified)
Ki [1]: 32 nM
solubility [2]: 131 µg/mL (≈ 268 µM)

CCCN(CCC)c1c(C)nc(-c2ccccc2Cl)c2ccccc12
Ki [1]: 1680 nM

CCCNc1c(C)nc(-c2c(C)cc(C)cc2OC)c2ccccc12
Ki [1]: 165 nM

CCCN(CCC)c1c(C)nc(-c2c(C)cc(C)cc2OCCN2CCOCC2)c2ccccc12
Ki [1]: 30 nM

CCCN(CCC)c1c(C)nc(-c2c(C)cc(C)cc2OCCN2CCCC2)c2ccccc12
Ki [1]: 173 nM
solubility [2]: 105 µg/mL (≈ 228 µM)

CCCN(CCC)c1c(CC)nc(-c2c(C)cc(C)cc2OC)c2ccccc12
Ki [1]: 9 nM

CCCN(CCC)c1c(C)nc(-c2c(C)cc(C)cc2OCCN2CCN(C)CC2)c2ccccc12
Ki [1]: 524 nM
solubility [2]: 135 µg/mL (≈ 276 µM)

CCCN(CCN1CCCC1)c1c(C)nc(-c2c(C)cc(C)cc2OC)c2ccccc12
Ki [1]: 215 nM
solubility [2]: 120 µg/mL (≈ 278 µM)

CCCN(CCC)c1c(C)nc(-c2c(C)cc(C)cc2OC)c2ccccc12
half-life [3]: 4 min
Ki [1]: 6 nM
logP [4]: 4.6
solubility [2]: < 0.5 µg/mL

CCCN(CCC)c1c(C)nc(-c2c(C)cc(C)cc2OCCN(C)C)c2ccccc12
Ki [1]: 265 nM
solubility [2]: 112 µg/mL (≈ 258 µM)

CCCN(CCC)c1c(C)nc(-c2cccc(Cl)c2)c2ccccc12
Ki [1]: > 10000 nM

CCCN(CCC)c1c(C)nc(-c2ccc(Cl)cc2)c2ccccc12
Ki [1]: 962 nM

CCCN(CCC)c1c(C)nc(-c2c(C)cc(C)cc2OCCN2CCCCC2)c2ccccc12
Ki [1]: 120 nM
solubility [2]: 27 µg/mL (≈ 57 µM)

CCCN(CCC)c1cnc(-c2c(C)cc(C)cc2OC)c2ccccc12
Ki [1]: 49 nM

CCCN(CCC)c1c(C)nc(-c2ccc(OC)cc2C)c2ccccc12
Ki [1]: 28 nM

CCCN(CC1CC1)c1c(C)nc(-c2c(C)cc(C)cc2OC)c2ccccc12
Ki [1]: 5 nM
solubility [2]: < 0.5 µg/mL

CCCN(CCC)c1c(C)nc(-c2ccc(OC(F)F)cc2OC)c2ccccc12
Ki [1]: 17 nM

CCCN(CCC)c1c(C)nc(-c2c(OC)cc(C(F)(F)F)cc2C(F)(F)F)c2ccccc12
half-life [3]: 36 min
bioavailability [5]: 4.8%
Ki [1]: 8 nM
Tmax [6]: 42 min
Vd (Rattus norvegicus): 13 L/kg
logP [4]: 5.7
CL/F [7]: 14.5 mL/min/kg
half-life [8]: 324 min
Cmax [9]: 387 ng/mL
solubility [2]: < 0.5 µg/mL

COc1cc(C)cc(C)c1-c1nc(C)c(NCCN2CCCC2)c2ccccc12
Ki [1]: > 10000 nM
solubility [2]: 103 µg/mL (≈ 264 µM)

CCCN(CCC)c1c(C)nc(-c2ccc(Cl)cc2Cl)c2ccccc12
Ki [1]: 103 nM

CCCN(CCC)c1c(C)nc(-c2ccc(OC)cc2CC)c2ccccc12
Ki [1]: 36 nM

CCCN(CCC)c1c(C)nc(-c2c(C)cc(C)cc2OCCN2CCC(O)CC2)c2ccccc12
Ki [1]: 41 nM
solubility [2]: 125 µg/mL (≈ 255 µM)

CCCN(CCC)c1c(C)nc(-c2ccc(OC)cc2OC)c2ccccc12
Ki [1]: 42 nM

CCCN(CCC)c1c(C)nc(-c2ccccc2)c2ccccc12
Ki [1]: > 10000 nM
